Measurements published in patent US20100305053A1, “USE OF […] OF A DERIVATIVE THEREOF FOR THE PREVENTION AND/OR TREATMENT OF SLACKENED SKIN” (L'OREAL, priority 2007, published 2010).

Tests used:
[1] = tested on: collagen IV; test: Collagen IV immunolabeling (immunofluorescence) of skin sections after 24 weeks of dietary hesperidin; format: in vivo; settings: for Number of sections (out of 12) with medium and strong labeling of the DEJ / % of sections with medium and strong labeling of the DEJ: collagen IV; for Number of sections (out of 12) with medium and strong labeling of the DEJ: control group E: 6; for % of sections with medium and strong labeling of the DEJ: control group E: 50
Method: (§1) The study was carried out on elderly, healthy individuals subjected, for 24 weeks, to a diet optionally comprising hesperidin.
(§2) The first group of individuals (group E) is a control group subjected to a standard diet free of hesperidin.
(§3) The second group of individuals (group F) is a group subjected to a diet comprising 0.1% by weight of hesperidin relative to the standard diet, which corresponds to 50 mg of hesperidin per kg of body weight of the individual and per day.
(§4) The third group of individuals (group G) is a group subjected to a standard diet comprising 0.5% by weight of hesperidin relative to the standard diet, which corresponds to 250 mg of hesperidin per kg of body weight of the individual and per day.
(§5) Skin samples were taken and analyzed in order to study, by immunofluorescence, the expression of the collagen IV and collagen VII skin markers characteristic of the dermoepidermal junction.
The immunolabeling of collagen IV is carried out by immunohistochemistry with an “anticollagen type IV polyclonal” primary antibody [Rockland (sold by Tebu-Bio), dilution 1/50] and an “anti-rabbit FITC” secondary antibody [Santa Cruz, dilution 1/100].
The labeling was carried out on frozen sections 5 μm thick derived from skin samples.
The slides were recovered in PBS for five minutes, incubated with the primary antibody for one hour at ambient temperature in the dark, rinsed in PBS twice for five minutes, then incubated with the secondary antibody for one hour at ambient temperature in the dark, and then again rinsed in PBS twice for five minutes.
The slides were then mounted with Vectashield (Vector) containing DAPI ([…]), and then covered with a coverslip.

[2] = tested on: collagen VII; test: Collagen VII immunolabeling (immunofluorescence) of skin sections after 24 weeks of dietary hesperidin; format: in vivo; settings: for Number of sections (out of 12) with labeling of the DEJ and labeling in the papillary dermis / % of sections with labeling of the DEJ and labeling in the papillary dermis: collagen VII; for Number of sections (out of 12) with labeling of the DEJ and labeling in the papillary dermis: control group E: 3; for % of sections with labeling of the DEJ and labeling in the papillary dermis: control group E: 25
Method: as §1, §2, §3, §4, §5
The collagen VII immunolabeling is carried out as indicated previously, but using “anticollagen type VII polyclonal” [EUROMEDEX (sold by Chemicon), dilution 1/500] as primary antibody and “anti-mouse Ig FITC” [Dake, dilution 1/100] as secondary antibody.

[3] = group F, diet with 0.1% by weight hesperidin (50 mg/kg/day), 24 weeks
[4] = group G, diet with 0.5% by weight hesperidin (250 mg/kg/day), 24 weeks

COc1ccc([C@@H]2CC(=O)c3c(O)cc(O[C@@H]4O[C@H](CO[C@@H]5O[C@@H](C)[C@H](O)[C@@H](O)[C@H]5O)[C@@H](O)[C@H](O)[C@H]4O)cc3O2)cc1O [Hesperidin, (S)-7-[[6-O-(6-deoxy-α-L-mannopyranosyl)-β-D-glucopyranosyl]oxy]-2,3-dihydro-5-hydroxy-2-(3-hydroxy-4-methoxyphenyl)-4H-1-benzopyran-4-one]
Number of sections (out of 12) with medium and strong labeling of the DEJ [1, 3]: 7
% of sections with medium and strong labeling of the DEJ [1, 3]: 58%
Number of sections (out of 12) with medium and strong labeling of the DEJ [1, 4]: 12
% of sections with medium and strong labeling of the DEJ [1, 4]: 100%
Effect on collagen network in the dermal tissue and collagen IV expression (conclusion) ([1]; oral, diet, 24 weeks): increase in the expression of the collagen IV
Expression of collagen IV in the basal lamina compared with the control ([1]; the two treated groups (F and G), FIG. 1): greater expression of collagen IV
Number of sections (out of 12) with labeling of the DEJ and labeling in the papillary dermis [2, 3]: 6
% of sections with labeling of the DEJ and labeling in the papillary dermis [2, 3]: 50%
Number of sections (out of 12) with labeling of the DEJ and labeling in the papillary dermis [2, 4]: 11
% of sections with labeling of the DEJ and labeling in the papillary dermis [2, 4]: 92%
Collagen VII fluorescence intensity at the DEJ and in the papillary dermis ([2]; more particularly group G (0.5% hesperidin diet), FIG. 2): increase in fluorescence intensity
Effect on collagen network in the dermal tissue and collagen VII expression (conclusion) ([2]; oral, diet, 24 weeks): increase in the expression of collagen VII
